Measurements taken from patent US20250145585A1, “HETEROCYCLIC INHIBITORS OF IGF-1R FOR TREATMENT OF DISEASE” (HORIZON THERAPEUTICS IRELAND DAC, priority 2023, published 2025).
pIC50: −log10 of the molar value.

Target: T1, IGF-1R (Homo sapiens, UniProt P08069)
T1 construct: expressed in transfected cells
Assay: Example B-2: IGF-1R Assay (PathHunter cell lines, EC80 agonist challenge, chemiluminescent detection)
Format: cell-based
Details: PathHunter cells, compound 60 minutes at 37° C., EC80 agonist 3 hours; read-out: IC50, Biological Activity against IGF-1R (Table B2)
Procedure, shortened: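 PathHunter cells were pre-incubated with compound for 60 min at 37° C (1% vehicle), then challenged with EC80 agonist for 3 h at room temperature. Chemiluminescent detection after 1 h gave % inhibition relative to EC80 and vehicle controls, from which IC50 was derived.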

T1 sequence (P08069 31-1367): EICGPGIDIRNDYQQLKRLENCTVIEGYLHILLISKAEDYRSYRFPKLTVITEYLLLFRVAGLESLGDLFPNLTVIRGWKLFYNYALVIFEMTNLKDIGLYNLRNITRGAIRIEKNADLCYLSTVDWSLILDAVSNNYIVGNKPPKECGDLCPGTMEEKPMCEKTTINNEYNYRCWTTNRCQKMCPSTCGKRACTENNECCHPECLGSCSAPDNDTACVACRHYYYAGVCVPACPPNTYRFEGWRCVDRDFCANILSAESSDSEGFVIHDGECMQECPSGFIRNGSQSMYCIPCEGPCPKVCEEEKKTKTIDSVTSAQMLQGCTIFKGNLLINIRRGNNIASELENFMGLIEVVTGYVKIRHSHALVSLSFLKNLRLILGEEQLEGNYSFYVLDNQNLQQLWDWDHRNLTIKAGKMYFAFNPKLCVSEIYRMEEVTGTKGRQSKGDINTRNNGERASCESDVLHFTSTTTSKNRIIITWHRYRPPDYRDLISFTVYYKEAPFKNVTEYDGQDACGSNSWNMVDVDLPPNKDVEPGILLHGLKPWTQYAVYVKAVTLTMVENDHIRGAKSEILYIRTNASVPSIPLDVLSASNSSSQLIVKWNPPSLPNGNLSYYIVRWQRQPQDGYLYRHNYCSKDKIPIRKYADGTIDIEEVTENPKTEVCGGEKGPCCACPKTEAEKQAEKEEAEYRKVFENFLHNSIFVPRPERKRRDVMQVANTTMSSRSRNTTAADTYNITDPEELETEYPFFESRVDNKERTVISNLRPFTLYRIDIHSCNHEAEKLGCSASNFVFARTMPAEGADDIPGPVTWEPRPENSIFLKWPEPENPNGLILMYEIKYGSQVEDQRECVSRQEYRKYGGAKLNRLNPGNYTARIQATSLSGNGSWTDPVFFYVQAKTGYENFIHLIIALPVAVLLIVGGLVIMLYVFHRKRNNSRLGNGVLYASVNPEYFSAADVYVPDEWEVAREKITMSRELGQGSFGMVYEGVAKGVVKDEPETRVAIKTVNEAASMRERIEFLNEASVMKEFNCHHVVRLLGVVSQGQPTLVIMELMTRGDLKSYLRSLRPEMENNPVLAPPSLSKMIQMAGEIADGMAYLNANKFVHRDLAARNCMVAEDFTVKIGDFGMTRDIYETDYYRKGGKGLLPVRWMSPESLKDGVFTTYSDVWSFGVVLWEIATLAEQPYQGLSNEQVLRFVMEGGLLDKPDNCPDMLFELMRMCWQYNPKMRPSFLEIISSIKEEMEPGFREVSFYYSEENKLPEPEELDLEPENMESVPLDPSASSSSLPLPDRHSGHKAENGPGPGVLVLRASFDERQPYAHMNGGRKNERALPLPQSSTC

| Structure (SMILES) | pIC50 |
| --- | --- |
| CC1(C)C(=O)N(c2ccc3c(c2)N(C(=O)C2CC2)CC32CC2)C(=O)N1Cc1ccnc(N[C@H]2[C@@H]3COC[C@@H]32)c1 [Compound 231, 1-((2-((1R,5S,6r)-3-oxabicyclo[3.1.0]hexan-6-ylamino)pyridin-4-yl)methyl)-3-(1′-(cyclopropanecarbonyl)spiro[cyclopropane-1,3′-indolin]-6′-yl)-5,5-dimethylimidazolidine-2,4-dione] | ≥ 6.30 |
| CC1(C)C(=O)N(c2ccc3c(c2)N(S(C)(=O)=O)CC32CCC2)C(=O)N1Cc1ccnc(NCC2CC2(F)F)c1 (stereo not shown) [Compound 232, 1-((2-(((2,2-difluorocyclopropyl)methyl)amino)pyridin-4-yl)methyl)-5,5-dimethyl-3-(1′-(methylsulfonyl)spiro[cyclobutane-1,3′-indolin]-6′-yl)imidazolidine-2,4-dione] | ≥ 6.30 |
| CC1(C)C(=O)N(c2ccc3c(c2)N(S(C)(=O)=O)CC32CCC2)C(=O)N1Cc1ccnc(NCC23CCC(CC2)OC3)c1 [Compound 233, 1-((2-(((2-oxabicyclo[2.2.2]octan-4-yl)methyl)amino)pyridin-4-yl)methyl)-5,5-dimethyl-3-(1′-(methylsulfonyl)spiro[cyclobutane-1,3′-indolin]-6′-yl)imidazolidine-2,4-dione] | ≥ 6.30 |
| CC1(C)C(=O)N(c2ccc3c(c2)N(C(=O)C2CC2)CC32CCC2)C(=O)N1Cc1ccnc(NC2C3COCC32)c1 (stereo not shown) [Compound 234, 1-((2-((3-oxabicyclo[3.1.0]hexan-6-yl)amino)pyridin-4-yl)methyl)-3-(1′-(cyclopropanecarbonyl)spiro [cyclobutane-1,3′-indolin]-6′-yl)-5,5-dimethylimidazolidine-2,4-dione] | ≥ 6.30 |
| COC(C)(C)CNc1cc(CN2C(=O)N(c3ccc4c(c3)N(S(C)(=O)=O)CC43CCC3)C(=O)C2(C)C)ccn1 [Compound 235, 1-((2-((2-methoxy-2-methylpropyl)amino)pyridin-4-yl)methyl)-5,5-dimethyl-3-(1′-(methylsulfonyl)spiro[cyclobutane-1,3′-indolin]-6′-yl)imidazolidine-2,4-dione] | 5.70 to 6.30 |
| CC1(C)C(=O)N(c2ccc3c(c2)N(C(=O)C2CC2)CC32CCC2)C(=O)N1Cc1ccnc(N[C@H]2CCOC2)c1 [Compound 236, (S)-3-(1′-(cyclopropanecarbonyl)spiro [cyclobutane-1,3′-indolin]-6′-yl)-5,5-dimethyl-1-((2-((tetrahydrofuran-3-yl)amino)pyridin-4-yl)methyl)imidazolidine-2,4-dione] | ≥ 6.30 |
| CC1(C)C(=O)N(c2ccc3c(c2)N(C(=O)C2CC2)CC32CCC2)C(=O)N1Cc1ccnc(NC2CCOCC2)c1 [Compound 237, 3-(1′-(cyclopropanecarbonyl)spiro [cyclobutane-1,3′-indolin]-6′-yl)-5,5-dimethyl-1-((2-((tetrahydro-2H-pyran-4-yl)amino)pyridin-4-yl)methyl)imidazolidine-2,4-dione] | ≥ 6.30 |
| CO[C@@H](C)CNc1cc(CN2C(=O)N(c3ccc4c(c3)N(S(C)(=O)=O)CC43CCC3)C(=O)C2(C)C)ccn1 [Compound 238, (S)-1-((2-((2-methoxypropyl)amino)pyridin-4-yl)methyl)-5,5-dimethyl-3-(1′-(methylsulfonyl)spiro[cyclobutane-1,3′-indolin]-6′-yl)imidazolidine-2,4-dione] | ≥ 6.30 |
| CO[C@H](C)CNc1cc(CN2C(=O)N(c3ccc4c(c3)N(S(C)(=O)=O)CC43CCC3)C(=O)C2(C)C)ccn1 [Compound 239, (R)-1-((2-((2-methoxypropyl)amino)pyridin-4-yl)methyl)-5,5-dimethyl-3-(1′-(methylsulfonyl)spiro[cyclobutane-1,3′-indolin]-6′-yl)imidazolidine-2,4-dione] | ≥ 6.30 |
| CC1(C)C(=O)N(c2ccc3c(c2)N(S(C)(=O)=O)CC32CCC2)C(=O)N1Cc1ccnc(N[C@@H]2C[C@@H]2F)c1 [Compound 240, 1-((2-(((1R,2S)-2-fluorocyclopropyl)amino)pyridin-4-yl)methyl)-5,5-dimethyl-3-(1′-(methylsulfonyl)spiro[cyclobutane-1,3′-indolin]-6′-yl)imidazolidine-2,4-dione] | ≥ 6.30 |
| CC1(C)CN(S(C)(=O)=O)c2cc(N3C(=O)N(Cc4ccnc(N[C@H]5CCOC[C@@H]5F)c4)C(C)(C)C3=O)ccc21 [Compound 241, 3-(3,3-dimethyl-1-(methylsulfonyl)indolin-6-yl)-1-((2-(((3R,4S)-3-fluorotetrahydro-2H-pyran-4-yl)amino)pyridin-4-yl)methyl)-5,5-dimethylimidazolidine-2,4-dione] | ≥ 6.30 |
| C[C@@H](Nc1cc(CN2C(=O)N(c3ccc4c(c3)N(S(C)(=O)=O)CC43CCC3)C(=O)C2(C)C)ccn1)c1cccnc1 [Compound 242, (R)-5,5-dimethyl-3-(1′-(methylsulfonyl)spiro[cyclobutane-1,3′-indolin]-6′-yl)-1-((2-((1-(pyridin-3-yl)ethyl)amino)pyridin-4-yl)methyl)imidazolidine-2,4-dione] | ≥ 6.30 |
| C[C@H](Nc1cc(CN2C(=O)N(c3ccc4c(c3)N(S(C)(=O)=O)CC43CCC3)C(=O)C2(C)C)ccn1)c1cccnc1 [Compound 243, (S)-5,5-dimethyl-3-(1′-(methylsulfonyl)spiro[cyclobutane-1,3′-indolin]-6′-yl)-1-((2-((1-(pyridin-3-yl)ethyl)amino)pyridin-4-yl)methyl)imidazolidine-2,4-dione] | ≥ 6.30 |
| CC1(C)C(=O)N(c2ccc3c(c2)N(S(C)(=O)=O)CC32CCC2)C(=O)N1Cc1ccnc(NCc2cccnc2)c1 [Compound 244, 5,5-dimethyl-3-(1′-(methylsulfonyl)spiro[cyclobutane-1,3′-indolin]-6′-yl)-1-((2-((pyridin-3-ylmethyl)amino)pyridin-4-yl)methyl)imidazolidine-2,4-dione] | ≥ 6.30 |
| CC1(C)CN(S(C)(=O)=O)c2cc(N3C(=O)N(Cc4ccnc(NCc5cc[nH]n5)c4)C(C)(C)C3=O)ccc21 [Compound 245, 1-((2-(((1H-pyrazol-3-yl)methyl)amino)pyridin-4-yl)methyl)-3-(3,3-dimethyl-1-(methylsulfonyl)indolin-6-yl)-5,5-dimethylimidazolidine-2,4-dione] | ≥ 6.30 |
| Cn1ccc(CNc2cc(CN3C(=O)N(c4ccc5c(c4)N(S(C)(=O)=O)CC5(C)C)C(=O)C3(C)C)ccn2)n1 [Compound 246, 3-(3,3-dimethyl-1-(methylsulfonyl)indolin-6-yl)-5,5-dimethyl-1-((2-(((1-methyl-1H-pyrazol-3-yl)methyl)amino)pyridin-4-yl)methyl)imidazolidine-2,4-dione] | ≥ 6.30 |
| [2H]C([2H])([2H])Nc1cc(CN2C(=O)N(c3ccc4c(c3)N(S(C)(=O)=O)CC4(C)C)C(=O)C2(C)C)ccn1 [Compound 247, 3-(3,3-dimethyl-1-(methylsulfonyl)indolin-6-yl)-5,5-dimethyl-1-((2-((methyl-d3)amino)pyridin-4-yl)methyl)imidazolidine-2,4-dione] | ≥ 6.30 |
| CC1(C)CN(S(=O)(=O)C2CC2)c2cc(N3C(=O)N(Cc4ccnc(NC5CCOCC5)c4)C(C)(C)C3=O)ccc21 [Compound 248, 3-(1-(cyclopropylsulfonyl)-3,3-dimethylindolin-6-yl)-5,5-dimethyl-1-((2-((tetrahydro-2H-pyran-4-yl)amino)pyridin-4-yl)methyl)imidazolidine-2,4-dione] | ≥ 6.30 |
| CC1(C)Cc2ccc(N3C(=O)N(Cc4ccnc(N[C@H]5[C@@H]6COC[C@@H]65)c4)C(C)(C)C3=O)cc2O1 [Compound 249, 1-((2-(((1R,5S,6r)-3-oxabicyclo[3.1.0]hexan-6-yl)amino)pyridin-4-yl)methyl)-3-(2,2-dimethyl-2,3-dihydrobenzofuran-6-yl)-5,5-dimethylimidazolidine-2,4-dione] | ≥ 6.30 |
| CC1(C)C(=O)N(c2ccc3c(c2)CCS3(=O)=O)C(=O)N1Cc1ccnc(N[C@H]2[C@@H]3COC[C@@H]32)c1 [Compound 250, 1-((2-(((1R,5S,6r)-3-oxabicyclo[3.1.0]hexan-6-yl)amino)pyridin-4-yl)methyl)-3-(1,1-dioxido-2,3-dihydrobenzo[b]thiophen-5-yl)-5,5-dimethylimidazolidine-2,4-dione] | < 5.00 |
| CC1(C)C(=O)N(c2ccc3c(c2)N(S(C)(=O)=O)CC3)C(=O)N1Cc1ccnc(N[C@H]2[C@@H]3COC[C@@H]32)c1 [Compound 251, 1-((2-(((1R,5S,6r)-3-oxabicyclo[3.1.0]hexan-6-yl)amino)pyridin-4-yl)methyl)-5,5-dimethyl-3-(1-(methylsulfonyl)indolin-6-yl)imidazolidine-2,4-dione] | < 5.00 |
| CC1(C)C(=O)N(c2ccc3c(c2)N(C(=O)C2CC2)CC3)C(=O)N1Cc1ccnc(N[C@H]2[C@@H]3COC[C@@H]32)c1 [Compound 252, 1-((2-(((1R,5S,6r)-3-oxabicyclo[3.1.0]hexan-6-yl)amino)pyridin-4-yl)methyl)-3-(1-(cyclopropanecarbonyl)indolin-6-yl)-5,5-dimethylimidazolidine-2,4-dione] | < 5.00 |
| CC1(C)CN(C(N)=O)c2cc(N3C(=O)N(Cc4ccnc(N[C@H]5[C@@H]6COC[C@@H]65)c4)C(C)(C)C3=O)ccc21 [Compound 253, 6-(3-((2-(((1R,5S,6r)-3-oxabicyclo[3.1.0]hexan-6-yl)amino)pyridin-4-yl)methyl)-4,4-dimethyl-2,5-dioxoimidazolidin-1-yl)-3,3-dimethylindoline-1-carboxamide] | ≥ 6.30 |
| COC[C@@H](C)Nc1cc(CN2C(=O)N(c3cc(C(C)(C)C)nn3C)C(=O)C2(C)C)ccn1 [Compound 259, (R)-3-(3-(tert-butyl)-1-methyl-1H-pyrazol-5-yl)-1-((2-((1-methoxypropan-2-yl)amino)pyridin-4-yl)methyl)-5,5-dimethylimidazolidine-2,4-dione] | ≥ 6.30 |
| Cn1nc(C(C)(C)C)cc1N1C(=O)N(Cc2ccnc(NC3CCOCC3)c2)C(C)(C)C1=O [Compound 260, 3-(3-(tert-butyl)-1-methyl-1H-pyrazol-5-yl)-5,5-dimethyl-1-((2-((tetrahydro-2H-pyran-4-yl)amino)pyridin-4-yl)methyl)imidazolidine-2,4-dione] | 5.00 to 5.70 |
